Measurements taken from PubChem BioAssay (NCI).
“And” between values parts separate entries of the source, which are not always exact repeats. Equal entries are not always repeated.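 Briefly, cells in 96-well plates were exposed to five compound concentrations for 48 h, and endpoints were estimated by linear interpolation. GI50 marks 50% less growth. TGI marks complete inhibition of growth.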

Experiments:
Assay in all cases: NCI tumour cell line growth inhibition, 48 h
EKVX NSCLC = system: EKVX NSCLC
COLO 205 colon = system: COLO 205 colon
NCI-H226 lung = system: NCI-H226 lung
NCI-H460 lung = system: NCI-H460 lung
MCF7 breast = system: MCF7 breast
ACHN renal = system: ACHN renal
SK-OV-3 ovarian = system: SK-OV-3 ovarian
MDA-MB-435 = system: MDA-MB-435
UACC-62 melanoma = system: UACC-62 melanoma
HT29 colon = system: HT29 colon
TK-10 renal = system: TK-10 renal
NCI-H522 lung = system: NCI-H522 lung
SF-295 CNS = system: SF-295 CNS
SR leukemia = system: SR leukemia
SF-268 CNS = system: SF-268 CNS
T-47D breast = system: T-47D breast
OVCAR-5 ovarian = system: OVCAR-5 ovarian
UO-31 renal = system: UO-31 renal
BT-549 breast = system: BT-549 breast
IGROV1 ovarian = system: IGROV1 ovarian
M14 melanoma = system: M14 melanoma
LOX IMVI melanoma = system: LOX IMVI melanoma
K-562 leukemia = system: K-562 leukemia
UACC-257 melanoma = system: UACC-257 melanoma
A498 renal = system: A498 renal
HCT-116 colon = system: HCT-116 colon
SK-MEL-28 melanoma = system: SK-MEL-28 melanoma
OVCAR-4 ovarian = system: OVCAR-4 ovarian
786-0 renal = system: 786-0 renal
NCI-H23 lung = system: NCI-H23 lung
SK-MEL-2 melanoma = system: SK-MEL-2 melanoma
SF-539 CNS = system: SF-539 CNS
SNB-75 CNS = system: SNB-75 CNS
HOP-92 NSCLC = system: HOP-92 NSCLC
DU-145 prostate = system: DU-145 prostate
CAKI-1 renal = system: CAKI-1 renal
HOP-62 NSCLC = system: HOP-62 NSCLC
PC-3 prostate = system: PC-3 prostate
MALME-3M melanoma = system: MALME-3M melanoma
HL-60(TB) leukemia = system: HL-60(TB) leukemia
RPMI-8226 leukemia = system: RPMI-8226 leukemia
SN12C renal = system: SN12C renal
MOLT-4 leukemia = system: MOLT-4 leukemia
HCT-15 colon = system: HCT-15 colon
RXF 393 renal = system: RXF 393 renal
A549 NSCLC = system: A549 NSCLC
NCI/ADR-RES ovarian = system: NCI/ADR-RES ovarian
MDA-MB-231 breast = system: MDA-MB-231 breast
SNB-19 CNS = system: SNB-19 CNS
OVCAR-8 ovarian = system: OVCAR-8 ovarian
MDA-N = system: MDA-N
SW-620 colon = system: SW-620 colon
HS 578T breast = system: HS 578T breast
KM12 colon = system: KM12 colon
SK-MEL-5 melanoma = system: SK-MEL-5 melanoma
OVCAR-3 ovarian = system: OVCAR-3 ovarian
U251 CNS = system: U251 CNS
HCC-2998 colon = system: HCC-2998 colon

In the case of `CN(C)c1ccc(/C=C2\C[C@H]3[C@@H]4CC=C5C[C@@H](N6CCCC6)CC[C@]5(C)[C@H]4CC[C@]3(C)[C@H]2O)cc1`, the GI50 (EKVX NSCLC) is reported as 3.67 µM, the TGI (EKVX NSCLC) is reported as 7.72 µM and 26.4 µM and the TGI (COLO 205 colon) is reported as 4.12 µM. The GI50 (NCI-H226 lung) was 14 µM, the GI50 (NCI-H460 lung) was 2.37 µM and the TGI (NCI-H460 lung) was 5.08 µM and 5.52 µM. The TGI (MCF7 breast) was 12.5 µM, the GI50 (ACHN renal) was 1.82 µM and the TGI (ACHN renal) was 1.71 µM and 3.34 µM. The GI50 (SK-OV-3 ovarian) was 14.7 µM, the TGI (SK-OV-3 ovarian) was 13 µM and > 100 µM and the TGI (MDA-MB-435) was 5.37 µM. For the same molecule, the GI50 (UACC-62 melanoma) was 2 µM, the TGI (UACC-62 melanoma) was 1.6 µM and 4.05 µM and the GI50 (HT29 colon) was 3.17 µM. The TGI (HT29 colon) was 3.54 µM and 15.1 µM, the GI50 (TK-10 renal) was 3.76 µM and the TGI (TK-10 renal) was 3.17 µM and 11.7 µM. The TGI (NCI-H522 lung) was 2.25 µM, the GI50 (SF-295 CNS) was 8.18 µM and the TGI (SF-295 CNS) was 2.99 µM and 23.1 µM. For the same molecule, the GI50 (SR leukemia) was 3.04 µM, the GI50 (SF-268 CNS) was 2.93 µM and the TGI (SF-268 CNS) was 2.4 µM and 9.84 µM. For the same molecule, the GI50 (T-47D breast) was 2.33 µM, the TGI (T-47D breast) was 2.33 µM and 6.03 µM and the GI50 (OVCAR-5 ovarian) was 14.1 µM. The TGI (OVCAR-5 ovarian) was 13 µM and 57.2 µM, the GI50 (UO-31 renal) was 1.96 µM and the TGI (UO-31 renal) was 1.62 µM and 4.25 µM. For the same molecule, the GI50 (BT-549 breast) was 17.4 µM, the TGI (BT-549 breast) was 9.72 µM and 53.1 µM and the GI50 (IGROV1 ovarian) was 3.92 µM. For the same molecule, the TGI (IGROV1 ovarian) was 2 µM and 8.53 µM, the GI50 (M14 melanoma) was 1.8 µM and the TGI (M14 melanoma) was 1.45 µM and 3.63 µM. The GI50 (LOX IMVI melanoma) was 2.25 µM, the TGI (LOX IMVI melanoma) was 1.57 µM and 4.72 µM and the GI50 (K-562 leukemia) was 2.36 µM. The GI50 (UACC-257 melanoma) was 2.09 µM, the TGI (UACC-257 melanoma) was 1.89 µM and 4.02 µM and the GI50 (A498 renal) was 2.89 µM. The TGI (A498 renal) was 2.1 µM and 8.92 µM, the GI50 (HCT-116 colon) was 2.1 µM and the TGI (HCT-116 colon) was 1.7 µM and 4.67 µM. For the same molecule, the TGI (SK-MEL-28 melanoma) was 1.84 µM, the GI50 (OVCAR-4 ovarian) was 2.16 µM and the TGI (OVCAR-4 ovarian) was 2 µM and 5.96 µM. The GI50 (786-0 renal) was 1.84 µM, the TGI (786-0 renal) was 1.29 µM and 3.73 µM and the GI50 (NCI-H23 lung) was 16.8 µM. For the same molecule, the TGI (NCI-H23 lung) was 9.93 µM and 58 µM, the GI50 (SK-MEL-2 melanoma) was 2 µM and the TGI (SK-MEL-2 melanoma) was 2.35 µM and 3.89 µM. For the same molecule, the TGI (SF-539 CNS) was 12.8 µM, the GI50 (SNB-75 CNS) was 3.4 µM and the TGI (SNB-75 CNS) was 3.01 µM and 14.9 µM. For the same molecule, the TGI (HOP-92 NSCLC) was 4.98 µM, the GI50 (DU-145 prostate) was 13.7 µM and the TGI (DU-145 prostate) was 13.7 µM and > 100 µM. The GI50 (CAKI-1 renal) was 1.99 µM, the TGI (CAKI-1 renal) was 3.88 µM and 23.9 µM and the GI50 (HOP-62 NSCLC) was 2.98 µM. For the same molecule, the TGI (HOP-62 NSCLC) was 7.14 µM and 12.9 µM, the GI50 (PC-3 prostate) was 2.82 µM and the TGI (PC-3 prostate) was 50 µM and 12 µM. The GI50 (MALME-3M melanoma) was 2.55 µM, the TGI (MALME-3M melanoma) was 1.69 µM and 8.35 µM and the GI50 (HL-60(TB) leukemia) was 2.3 µM. The TGI (HL-60(TB) leukemia) was 2.31 µM and 4.86 µM, the GI50 (RPMI-8226 leukemia) was 3.1 µM and the GI50 (SN12C renal) was 2.42 µM. For the same molecule, the TGI (SN12C renal) was 3.3 µM and 5.6 µM, the GI50 (MOLT-4 leukemia) was 4.98 µM and the GI50 (HCT-15 colon) was 3.43 µM. The TGI (HCT-15 colon) was 5.51 µM and 22.3 µM, the GI50 (RXF 393 renal) was 3.47 µM and the TGI (RXF 393 renal) was 2.65 µM and 12.3 µM. For the same molecule, the GI50 (A549 NSCLC) was 3.79 µM, the TGI (A549 NSCLC) was 4.41 µM and 15.3 µM and the GI50 (NCI/ADR-RES ovarian) was 4.01 µM. For the same molecule, the TGI (NCI/ADR-RES ovarian) was 6.19 µM and 19.9 µM, the GI50 (MDA-MB-231 breast) was 2.23 µM and the TGI (MDA-MB-231 breast) was 2.16 µM and 4.46 µM. The GI50 (SNB-19 CNS) was 2.41 µM, the TGI (SNB-19 CNS) was 6.94 µM and 9.08 µM and the GI50 (OVCAR-8 ovarian) was 2.87 µM. For the same molecule, the TGI (OVCAR-8 ovarian) was 1.75 µM and 5.47 µM, the GI50 (MDA-N) was 2.87 µM and the TGI (MDA-N) was 2.34 µM and 8.6 µM. The TGI (SW-620 colon) was 3.69 µM, the GI50 (HS 578T breast) was 2.83 µM and the TGI (HS 578T breast) was 2.5 µM and 7.93 µM. The GI50 (KM12 colon) was 5.48 µM, the TGI (KM12 colon) was 10.7 µM and 50.9 µM and the GI50 (SK-MEL-5 melanoma) was 3.44 µM. For the same molecule, the TGI (SK-MEL-5 melanoma) was 1.62 µM and 12.7 µM, the GI50 (OVCAR-3 ovarian) was 2.06 µM and the TGI (OVCAR-3 ovarian) was 2.7 µM and 4.86 µM. For the same molecule, the GI50 (U251 CNS) was 1.78 µM, the TGI (U251 CNS) was 1.92 µM and 3.31 µM and the TGI (HCC-2998 colon) was 1.86 µM.
